The structures appear in SMILES notation. pIC50: −log10 of the molar value. Like-named read-outs stand apart in the source and are kept apart here.

The target in assay [1] is recombinant human SYK360-635 (Spleen Tyrosine Kinase) (Homo sapiens (Human), UniProt P43405). In words: SYK kinase assay (33P filtration, IC50 of SYK inhibition).
Procedure: Determination of IC50 of Spleen Tyrosine Kinase (SYK) inhibition:
SYK kinase assay is a standard kinase assay adapted to a 96 well plate format. This assay is performed in 96-well format for IC50 determination with 8 samples which represented 10 half log dilutions and a 40 μL reaction volume. The assay measures the incorporation of radiolabeled ^33P γATP into an N-terminally biotinylated peptide substrate, derived from naturally occurring phosphoacceptor consensus sequence (Biotin-11aa DY*E). Phosphorylated products were detected upon termination of reactions with EDTA and the addition of Streptavidin coated beads.
BSA: Bovine Serum Albumin Fraction V, fatty acid free (Roche Diagnostics GmbH, Cat. No. 9100221) diluted to a final concentration of 0.1%
Assay Dilution Buffer (ADB): 50 mM HEPES, 0.1 mM EGTA, 0.1 mM Na Vanadate, 0.1 mM (3-glycerophosphate, 10 mM MgCl2, 1 mM DTT, 0.1% BSA, pH 7.5
Bead wash buffer: 10 g/L PBS (Phosphate buffered saline) with 2M NaCl+1% phosphoric acid.
DMSO and the mixture was incubated for 10 min at RT.
The kinase reaction was initiated by the addition of 10 μL 4× substrate cocktail containing the DYE peptide substrate [0 or 5 μM], ATP [20 μM] and ^33PγATP [2 μCi/r×n]. After incubation at 30° C. for 15 min, the reaction was terminated by the transfer of 25 μL of the reaction sample to a 96 well 0.65 μm Millipore MADVNOB membrane/plate containing 200 μL 5 mM EDTA and 20% Streptavidine coated beads in PBS.
The unbound radionucleotides were washed under vacuum with 3×250 μL 2M NaCl; 2×250 μL 2M NaCl+1% phosphoric acid; 1×250 μL H2O. After the last wash membrane/plates were transferred to an adaptor plate, heat dried for 15 min at 60° C., and 50 μL scintillation cocktail was added to each well and 4 h later the amount of radioactivity was counted in a top counter.
Assay [2] has as its system Human B cell lymphoma cell line Ramos. In words: Ramos Calcium Influx FLIPR Assay. In kind it is cell-based. The settings on record: Ramos cells, anti-human IgM 10 μg/mL stimulation, read-out: RAMOS_IC50. As to the method: Ramos Calcium Influx FLIPR Assay
Human B cell lymphoma cell line Ramos was cultivated in RPMI-1640 with 10% Fetal Bovine Serum (Invitrogen). Cells were seeded into assay plate and loaded with calcium dye by adding 30 μl of dye loading buffer according to manufacturer's instruction (Beckton Dickinson Calcium Kit, Cat#80500). The cells were then treated with serial diluted compounds for 30 min before stimulation. Baseline fluorescence was recorded for about 20 seconds followed by stimulation with mouse anti-human IgM (10 μg/mL, clone M2E6, Antibody Solutions Inc.) for Ramos cells, and record of the maximal fluorescent counts in each well. Maximal counts divided by baseline counts, defined as fold change from baseline for each well, was used for IC50 calculation.

For assay [3], the system named is B cell CD69 up-regulation in human whole blood. As to the kind of experiment: B Cell CD69 Up-Regulation Assay in Human Whole Blood. It counts as cell-based. The settings on record: anti-human IgM 50 μg/mL for 20 h, CD69hi CD20+ B cells. As to the method:
B Cell CD69 Up-Regulation Assay in Human Whole Blood
Human Blood was collected from healthy volunteers into Vacutainers (BD Biosciences, San Jose, Calif.) containing sodium heparin. Test compound was suspended in DMSO and nine half-log serial dilutions were made. The concentration of […] in the assay was 0.5%. 100 μL whole blood was pre-incubated with compound for 30 min and then stimulated with goat F(ab′)2 anti-human IgM (50 μg/mL, Southern Biotech) for 20 h. At the end of the 20 hour incubation, samples were incubated with fluorochrome-conjugated antibodies, PE mouse anti-human CD20 and APC Mouse anti-human CD69 (BD Biosciences), for 30 minutes. Samples were then lysed with Lyse solution (BD) and washed with PBS containing 2% fetal bovine serum (FBS). Fluorescent signals were acquired on flow cytometer LSR II (BD) and data were analyzed by Flow Jo. The percentage of activated (CD69hi) B-cell lymphocytes (CD20+) were determined using un-stimulated (negative control) and stimulated (positive control) wells as reference guidelines. The percentage inhibition was calculated and an IC50 curve was constructed using GraphPad Prism software with sigmoidal curve fitting.

[4] abbreviates: read-out: ENZYME_FILTRATION_IC50, SYK 0.5 nM, ATP 20 μM, 33P filtration.

Take `CC(C)(C)NC(=O)c1c[nH]c2ncc(Nc3ccnc(S(C)(=O)=O)c3)nc12` [Compound I-28, N-tert-butyl-2-(2-(methylsulfonyl)pyridin-4-ylamino)-5H-pyrrolo[2,3-b]pyrazine-7-carboxamide]: the values for the pIC50 in assay [1] (setting [4]) and in assay [2] were 6.92 and 6.09, respectively.

Regarding `Cc1nn(C)cc1Nc1cnc2[nH]cc(C(=O)NC(C)(C)C)c2n1` [Compound I-30, N-tert-butyl-2-(1,3-dimethyl-1H-pyrazol-4-ylamino)-5H-pyrrolo[2,3-b]pyrazine-7-carboxamide], the pIC50 was 7.01 in assay [1] (setting [4]), 6.56 in assay [2] and 6.57 in assay [3].

Consider `Cn1cc2c(n1)CCCN2c1cnc2[nH]cc(C(=O)NC(C)(C)C)c2n1` [Compound I-32, N-tert-butyl-2-(2-methyl-6,7-dihydro-2H-pyrazolo[4,3-b]pyridin-4(5H)-yl)-5H-pyrrolo[2,3-b]pyrazine-7-carboxamide], for which the pIC50 in assay [1] (setting [4]) is 7.36; in assay [2], 6.56; in assay [3], 5.94.

Turning to `CC(C)(C)NC(=O)c1c[nH]c2ncc(Nc3ccc(S(C)(=O)=O)cc3)nc12` [Compound I-20, N-tert-butyl-2-(4-(methylsulfonyl)phenylamino)-5H-pyrrolo[2,3-b]pyrazine-7-carboxamide], the pIC50 in assay [1] (setting [4]) was 7.52; in assay [2], 6.47; in assay [3], 6.30.

Regarding `[2H]c1c([2H])c([2H])c(Nc2cnc3[nH]cc(C(=O)NC(C)(C)C)c3n2)c([2H])c1[2H]` [Compound I-37, 2-Phenylamino(D5)-5H-pyrrolo[2,3-b]pyrazine-7-carboxylic acid tert-butylamide], the results for the pIC50 in assay [1] and in assay [2] were 8.32 and 7.42, respectively.

In the case of `Cc1nsc(Nc2cnc3[nH]cc(C(=O)NC(C)(C)C)c3n2)n1` [Compound I-31, N-tert-butyl-2-(3-methyl-1,2,4-thiadiazol-5-ylamino)-5H-pyrrolo[2,3-b]pyrazine-7-carboxamide], the values for the pIC50 in assay [1] (setting [4]) and in assay [2] were 7.75 and 6.60, respectively.

In the case of `Cc1ncc(Nc2cnc3[nH]cc(C(=O)NC(C)(C)C)c3n2)cn1` [Compound I-7, N-tert-butyl-2-(2-methylpyrimidin-5-ylamino)-5H-pyrrolo[2,3-b]pyrazine-7-carboxamide], the pIC50 was 6.79 in assay [1] (setting [4]), 6.55 in assay [2] and 6.59 in assay [3].

Turning to `Cc1ccc(Nc2cnc3[nH]cc(C(=O)NC(C)(C)C)c3n2)cc1` [Compound I-12, N-tert-butyl-2-(p-tolylamino)-5H-pyrrolo[2,3-b]pyrazine-7-carboxamide], the figures for the pIC50 in assay [1] (setting [4]), in assay [2] and in assay [3] were 8.49, 7.12 and 5.67, respectively.

`CC(C)(C)NC(=O)c1c[nH]c2ncc(Nc3cncc(S(C)(=O)=O)c3)nc12` [Compound I-29, N-tert-butyl-2-(5-(methylsulfonyl)pyridin-3-ylamino)-5H-pyrrolo[2,3-b]pyrazine-7-carboxamide]: the figures for the pIC50 in assay [1] (setting [4]) and in assay [2] were 6.64 and 6.19, respectively.

For `Cc1c(Nc2cnc3[nH]cc(C(=O)NC(C)(C)C)c3n2)cnn1C` [Compound I-16, N-tert-butyl-2-(1,5-dimethyl-1H-pyrazol-4-ylamino)-5H-pyrrolo[2,3-b]pyrazine-7-carboxamide], the figures for the pIC50 in assay [1] (setting [4]), in assay [2] and in assay [3] were 7.03, 6.77 and 6.43, respectively.

In the case of `CC(C)(C)NC(=O)c1c[nH]c2ncc(Nc3cccc(S(C)(=O)=O)c3)nc12` [Compound I-13, N-tert-butyl-2-(3-(methylsulfonyl)phenylamino)-5H-pyrrolo[2,3-b]pyrazine-7-carboxamide], the pIC50 in assay [1] (setting [4]) was 7.89; in assay [2] it was 7.16; in assay [3] it was 6.72.

For `Cc1ccc(Nc2cnc3[nH]cc(C(=O)NC(C)(C)C)c3n2)c(F)c1` [Compound I-11, N-tert-butyl-2-(2-fluoro-4-methylphenylamino)-5H-pyrrolo[2,3-b]pyrazine-7-carboxamide], the pIC50 in assay [1] (setting [4]) was 7.96; in assay [2] it was 5.88.

Turning to `Cc1ccc(Nc2cnc3[nH]cc(C(=O)NC(C)(C)C)c3n2)c(C)c1` [Compound I-19, N-tert-butyl-2-(2,4-dimethylphenylamino)-5H-pyrrolo[2,3-b]pyrazine-7-carboxamide], the figures for the pIC50 in assay [1] (setting [4]) and in assay [2] were 6.93 and 6.29, respectively.

On to `Cc1cc(Nc2nc3c(C(=O)NC(C)(C)C)c[nH]c3nc2Cl)sn1` [Compound I-38, N-tert-butyl-3-chloro-2-(3-methylisothiazol-5-ylamino)-5H-pyrrolo[2,3-b]pyrazine-7-carboxamide], for which the pIC50 was 6.19 in assay [1] (setting [4]) and 4.83 in assay [2].

Take `CN(c1cccnc1)c1cnc2[nH]cc(C(=O)NC(C)(C)C)c2n1` [Compound I-21, N-tert-butyl-2-(methyl(pyridin-3-yl)amino)-5H-pyrrolo[2,3-b]pyrazine-7-carboxamide]: the pIC50 is 5.72 in assay [1] (setting [4]), 5.32 in assay [2] and < 4.30 in assay [3].

On to `Cc1cc(Nc2cnc3[nH]cc(C(=O)NC(C)(C)C)c3n2)on1` [Compound I-22, N-tert-butyl-2-(3-methylisoxazol-5-ylamino)-5H-pyrrolo[2,3-b]pyrazine-7-carboxamide], for which the pIC50 in assay [1] (setting [4]) is 7.60; in assay [2], 7.10; in assay [3], 5.87.

Consider `Cc1cnc(Nc2cnc3[nH]cc(C(=O)NC(C)(C)C)c3n2)cn1` [Compound I-8, N-tert-butyl-2-(5-methylpyrazin-2-ylamino)-5H-pyrrolo[2,3-b]pyrazine-7-carboxamide], for which the pIC50 in assay [1] (setting [4]) is 7.29; in assay [2], 6.48; in assay [3] it was 6.37.

Take `Cc1cc(Nc2cnc3[nH]cc(C(=O)NC(C)(C)C)c3n2)[nH]n1` [Compound I-9, N-tert-butyl-2-(3-methyl-1H-pyrazol-5-ylamino)-5H-pyrrolo[2,3-b]pyrazine-7-carboxamide]: the pIC50 in assay [1] (setting [4]) was 7.81; in assay [2] it was 7.03; in assay [3] it was 6.46.

As to `CC(O)c1cccc(Nc2cnc3[nH]cc(C(=O)NC(C)(C)C)c3n2)c1` (centres unmarked) [Compound I-24, N-tert-butyl-2-(3-(1-hydroxyethyl)phenylamino)-5H-pyrrolo[2,3-b]pyrazine-7-carboxamide], the pIC50 in assay [1] (setting [4]) was 8.23; in assay [2] it was 7.03; in assay [3], 6.38.

Turning to `Cc1ccc(Nc2cnc3[nH]cc(C(=O)NC(C)(C)CO)c3n2)nc1` [Compound I-2, N-(1-hydroxy-2-methylpropan-2-yl)-2-(5-methylpyridin-2-ylamino)-5H-pyrrolo[2,3-b]pyrazine-7-carboxamide], the pIC50 in assay [1] (setting [4]) was 7.56; in assay [2], 6.61; in assay [3], 6.27.

For `Cc1ccc(Nc2cnc3[nH]cc(C(=O)NC(C)C)c3n2)nc1` [Compound I-4, N-isopropyl-2-(5-methylpyridin-2-ylamino)-5H-pyrrolo[2,3-b]pyrazine-7-carboxamide], the pIC50 in assay [1] (setting [4]) was 7.37; in assay [2], 6.59; in assay [3], 6.04.

For `CC(C)(CO)NC(=O)c1c[nH]c2ncc(Nc3cccnc3)nc12` [Compound I-26, N-(1-hydroxy-2-methylpropan-2-yl)-2-(pyridin-3-ylamino)-5H-pyrrolo[2,3-b]pyrazine-7-carboxamide], the pIC50 in assay [1] (setting [4]) was 8.25; in assay [2], 6.67.

For the compound `Cc1nc2[nH]cc(C(=O)NC(C)(C)C)c2nc1Nc1cnn(C)c1` [Compound I-34, 3-Methyl-2-(1-methyl-1H-pyrazol-4-ylamino)-5H-pyrrolo[2,3-b]pyrazine-7-carboxylic acid tert-butylamide], the pIC50 was 5.66 in assay [2] and 5.29 in assay [3].

With `CC(C)(C)NC(=O)c1c[nH]c2ncc(Nc3cccnc3)nc12` [Compound I-10, N-tert-butyl-2-(pyridin-3-ylamino)-5H-pyrrolo[2,3-b]pyrazine-7-carboxamide], the pIC50 was 7.79 in assay [1] (setting [4]) and 7.19 in assay [2].

As for `Cc1nc2[nH]cc(C(=O)NC(C)(C)C)c2nc1Nc1cccc(S(C)(=O)=O)c1` [Compound I-35, 2-(3-Methanesulfonyl-phenylamino)-3-methyl-5H-pyrrolo[2,3-b]pyrazine-7-carboxylic acid tert-butylamide], the pIC50 in assay [1] (setting [4]) is 5.53.

With `CN(C)C(=O)c1ccccc1Nc1cnc2[nH]cc(C(=O)NC(C)(C)C)c2n1` [Compound I-15, N-tert-butyl-2-(2-(dimethylcarbamoyl)phenylamino)-5H-pyrrolo[2,3-b]pyrazine-7-carboxamide], the pIC50 is 6.03 in assay [1] (setting [4]) and 5.16 in assay [3].

(Values after patent US9334278B2, “Pyrrolo[2,3-B]pyrazines as SYK inhibitors” (Hoffmann-La Roche Inc., priority 2012, dated 2016).)
